Results as given in patent publication US20260041620A1, “NOVEL AMINO ACID BASED SALTS, COMPOSITIONS AND METHODS FOR TREATING SKIN AND IMPROVING SKIN REJUVENATION AND LONGEVITY” (Sytheon Ltd, priority 2023, published 2026).
Marks after values point to notes of the source that are not given here.

What was measured:
[1] = test system: normal human adipose-derived mesenchymal stem cells (MSC); experiment: Reprograming of aged mesenchymal stem cells, gene expression by qPCR; type: cell-based; settings: 10 ug/ml, 72 hours, starved MSC
Source text: MSCs are a multipotent type of stem cell that, directly or indirectly, have a significant impact on a number of physiological processes, including the proliferation and differentiation of epidermal cells and regeneration of the epidermal layer; however, as they age they show lower stemness and regenerative potential. MSCs are shown to enhance wound healing, to restore the barrier function of the skin, and to address skin aging, particularly aging due to sun exposure as well as natural senescence, including reducing the manifestation and/or degree of wrinkles. An evaluation was conducted to ascertain the effect, if any, of zinc di-(di-n-butyryl lysinate) (“ZDBL”) on MSCs. Specifically, normal human adipose-derived mesenchymal stem cells (MSC) (ATCC, Manassas, VA—PCS-500-011) were seeded in mesenchymal stem cell basal medium (ATCC, Manassas, VA—PCS500-030) supplemented with the MSC growth kit starvation media (ATCC, Manassas, VA—PCS500-040-811S) and cultured at 37° C. in a humidified 5% CO2 atmosphere using an VWR tissue culture incubator, Approximately 24 hours after a portion of the cells was placed in the starvation medium to generate stress, they were exposed to the ZDBL (10 ug/ml) and incubated for 72 hours: the remaining portion was not exposed to the ZDBL. RNA was then extracted for gene expression quantification by qPCR.

HDAC6 = target: T1, HDAC6 (Homo sapiens, UniProt Q9UBN7); settings: reported, abcam; cited from earlier work
T1 sequence (Q9UBN7 1-1215): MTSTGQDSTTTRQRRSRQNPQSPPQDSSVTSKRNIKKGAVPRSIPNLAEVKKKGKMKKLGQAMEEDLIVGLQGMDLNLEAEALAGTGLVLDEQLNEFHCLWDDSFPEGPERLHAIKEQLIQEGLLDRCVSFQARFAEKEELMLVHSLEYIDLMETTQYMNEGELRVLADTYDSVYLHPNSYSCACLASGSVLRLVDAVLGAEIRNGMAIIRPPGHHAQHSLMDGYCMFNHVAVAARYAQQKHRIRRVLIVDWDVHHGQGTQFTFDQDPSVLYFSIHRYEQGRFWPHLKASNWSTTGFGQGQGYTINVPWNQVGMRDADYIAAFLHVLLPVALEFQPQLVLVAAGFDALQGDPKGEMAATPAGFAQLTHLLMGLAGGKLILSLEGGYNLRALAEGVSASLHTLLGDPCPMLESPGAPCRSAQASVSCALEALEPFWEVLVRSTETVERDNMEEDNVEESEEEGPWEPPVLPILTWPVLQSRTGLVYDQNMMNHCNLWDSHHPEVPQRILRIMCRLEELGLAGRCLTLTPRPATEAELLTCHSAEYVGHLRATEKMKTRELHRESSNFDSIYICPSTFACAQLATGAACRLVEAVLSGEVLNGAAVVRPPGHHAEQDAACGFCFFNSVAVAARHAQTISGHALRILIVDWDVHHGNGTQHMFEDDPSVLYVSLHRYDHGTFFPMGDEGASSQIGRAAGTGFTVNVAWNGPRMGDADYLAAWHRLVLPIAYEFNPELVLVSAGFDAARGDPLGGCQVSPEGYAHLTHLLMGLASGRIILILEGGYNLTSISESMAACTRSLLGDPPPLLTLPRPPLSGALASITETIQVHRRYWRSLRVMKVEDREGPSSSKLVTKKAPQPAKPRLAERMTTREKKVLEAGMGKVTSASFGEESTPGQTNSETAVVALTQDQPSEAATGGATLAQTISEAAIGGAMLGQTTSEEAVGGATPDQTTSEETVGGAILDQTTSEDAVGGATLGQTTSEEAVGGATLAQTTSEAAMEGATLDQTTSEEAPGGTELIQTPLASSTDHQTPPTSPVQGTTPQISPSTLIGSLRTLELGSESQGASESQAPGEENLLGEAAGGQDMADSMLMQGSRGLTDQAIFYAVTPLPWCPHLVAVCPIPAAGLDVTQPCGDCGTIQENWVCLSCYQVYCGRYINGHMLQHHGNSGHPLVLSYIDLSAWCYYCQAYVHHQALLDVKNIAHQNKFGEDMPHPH

HDAC1 = HDAC1 (Homo sapiens, UniProt Q13547); settings: reported, abcam; cited from earlier work
Chain of HDAC1 (Q13547 whole entry, species assumed): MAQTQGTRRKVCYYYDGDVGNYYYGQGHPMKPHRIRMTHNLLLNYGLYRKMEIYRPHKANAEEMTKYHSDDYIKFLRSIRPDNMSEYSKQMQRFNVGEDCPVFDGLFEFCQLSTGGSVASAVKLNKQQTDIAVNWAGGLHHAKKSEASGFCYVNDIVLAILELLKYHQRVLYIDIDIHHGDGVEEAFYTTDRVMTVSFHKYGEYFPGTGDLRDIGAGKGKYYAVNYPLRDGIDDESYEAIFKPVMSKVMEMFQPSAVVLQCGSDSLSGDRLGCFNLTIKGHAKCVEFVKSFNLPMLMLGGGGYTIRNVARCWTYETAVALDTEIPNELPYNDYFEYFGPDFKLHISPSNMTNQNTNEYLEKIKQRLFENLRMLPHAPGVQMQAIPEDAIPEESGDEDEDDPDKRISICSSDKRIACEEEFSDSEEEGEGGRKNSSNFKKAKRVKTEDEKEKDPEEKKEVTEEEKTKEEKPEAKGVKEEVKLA

| SMILES | BMP7 gene expression, Fold Change versus control [1] | DACT1 gene expression, Fold Change versus control [1] | DLK1 gene expression, Fold Change versus control [1] | DPP4 gene expression, Fold Change versus control [1] | OCT4 gene expression, Fold Change versus control [1] | SOX2 gene expression, Fold Change versus control [1] | SQSTM1/p62 gene expression, Fold Change versus control [1] | TP63 gene expression, Fold Change versus control [1] | WNT2 gene expression, Fold Change versus control [1] | inhibition of HDAC6 (HDAC6) | IC50 (HDAC1) [µM] |
| --- | --- | --- | --- | --- | --- | --- | --- | --- | --- | --- | --- |
| CCCC(=O)NCCCC[C@H](NC(=O)CCC)C(=O)[O-].CCCC(=O)NCCCC[C@H](NC(=O)CCC)C(=O)[O-].[Zn+2] [Zn di-(di-n-butyryl lysinate), Zinc di-(di-n-butyryl lysinate)] | 1.8* fold | 2.2** fold | 2.4** fold | −1.8** fold | 1.7** fold | 2.4* fold | 1.7* fold | 3.0** fold | 1.9** fold | – | – |
| CCCC(=O)[O-].[Na+] [Sodium butyrate, reference compound] | – | – | – | – | – | – | – | – | – | no inhibition | 300 |
